In patent US12103946B2, “Steroid compounds as Treg modulators and uses thereof” (New York University, priority 2018, dated 2024):

Experiments:
[1] = test system: CD4+ T cells; assay: TCR activation markers (CD25, CD69, Nur77, CD44); format: cell-based, mouse
Text: Representative FACS plots of CD4^+ T cells cultured for 3 days and stained intracellularly for FoxP3 (e). Quantification of FoxP3^+ and viable T cells after 3-day culture (f) (n=2/group). n, number of biologically independent samples. Data are representative of two independent experiments (b, d). Data in (c) are shown as the mean±standard deviation.

[2] = test system: fusion protein of RORγt and Gal4-DBD; assay: RORγt luciferase reporter assay in HEK293 cells; format: cell-based, human; conditions: ML209 2 μM, bile acids 10 μM
Method: Data are shown as the mean±standard deviation by unpaired t-test with 2-tailed p-value.
We next examined if 3-oxoLCA physically interacts with the RORγt protein in vitro. A microscale thermophoresis (MST) assay was performed with recombinant human RORγt ligand-binding domain (LBD). […] Next, we examined if 3-oxoLCA modulates the transcriptional activity of RORγt. We assayed the effect of the bile acids on firefly luciferase expression directed by a fusion protein of RORγt and Gal4-DBD (DNA-binding domain) in human embryonic kidney (HEK) 293 cells^14.

C[C@H](CCC(=O)O)[C@H]1CC[C@H]2[C@@H]3CC[C@@H]4CC(=O)CC[C@]4(C)[C@H]3CC[C@]12C [3-oxoLCA, 3-oxolithocholic acid]
T cell receptor (TCR)-mediated activation [1]: do not significantly affect cell proliferation, cell viability, or T cell activation
RORγt reporter activity [2]: significantly reduced the RORγt reporter activity
